Test results: PubChem BioAssay AID1963433 (Molecular Pharmacology Branch, DTP, NCI, 2024)

Tested on: 772245-204-R-J1-PDC complex spheroid growth
Assay: Anticancer human tumor 772245-204-R-J1-PDC patient-derived rhabdomyosarcoma cell line growth inhibition [Asc]
Conditions: for IC50: curve of first compound; for viability, T/C: stronger effect = lower value
How it was run: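 Spheroid model: tumor line + HUVEC + hMSC. Single agents and combinations; top conc. at/near clinical Cmax (10 microM if undetermined), half-log dilutions. DMSO stocks at 800-fold test concentration.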

[1] = second compound 0.01 µM, first compound 0.0316 µM
[2] = second compound 0.01 µM, first compound 0.1 µM
[3] = second compound 0.0316 µM, first compound 0.0316 µM
[4] = second compound 0.0316 µM, first compound 0.1 µM
[5] = second compound 0.1 µM, first compound 0.0316 µM
[6] = second compound 0.1 µM, first compound 0.1 µM
[7] = second compound 0.316 µM, first compound 0.0316 µM
[8] = second compound 0.316 µM, first compound 0.1 µM
[9] = second compound 1 µM, first compound 0.0316 µM
[10] = second compound 1 µM, first compound 0.1 µM
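Further: compound exposure lasted seven days.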
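Wherever viability, T/C is given: 100% = DMSO vehicle control viability.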

Work on `Cc1nc(N2CCC3(CC2)COC(C)C3N)c(CO)nc1Sc1ccnc(N)c1Cl` (configuration not stated) + CNC(C)C(=O)NC1CN(S(=O)(=O)c2cccc(S(=O)(=O)N3CCC4CCC(C(=O)NC(c5ccccc5)c5ccccc5)N4C(=O)C(NC(=O)C(C)NC)C3)c2)CCC2CCC(C(=O)NC(c3ccccc3)c3ccccc3)N2C1=O yielded an IC50 (second compound 0.00316 µM) of over 3 µM, an IC50 (second compound 0.01 µM) of over 3 µM and an IC50 (second compound 0.0316 µM) of over 3 µM. For the same compound, the IC50 (second compound 0.1 µM) was over 3 µM, the IC50 (second compound 0.316 µM) was over 3 µM and the IC50 (second compound 1 µM) was over 3 µM. The viability, T/C (second compound 0.00316 µM, first compound 0.00949 µM) was 101%, the viability, T/C (second compound 0.00316 µM, first compound 0.03 µM) was 105% and the viability, T/C (second compound 0.00316 µM, first compound 0.0949 µM) was 109%. The viability, T/C (second compound 0.00316 µM, first compound 0.3 µM) was 105%, the viability, T/C (second compound 0.00316 µM, first compound 0.949 µM) was 115% and the viability, T/C (second compound 0.00316 µM, first compound 3 µM) was 92.9%. For the same compound, the viability, T/C (second compound 0.01 µM, first compound 0.00949 µM) was 108%, the viability, T/C (second compound 0.01 µM, first compound 0.03 µM) was 93.4% and the viability, T/C (second compound 0.01 µM, first compound 0.0949 µM) was 107%. For the same compound, the viability, T/C (second compound 0.01 µM, first compound 0.3 µM) was 117%, the viability, T/C (second compound 0.01 µM, first compound 0.949 µM) was 102% and the viability, T/C (second compound 0.01 µM, first compound 3 µM) was 75.4%. For the same compound, the viability, T/C (second compound 0.0316 µM, first compound 0.00949 µM) was 104%, the viability, T/C (second compound 0.0316 µM, first compound 0.03 µM) was 99.3% and the viability, T/C (second compound 0.0316 µM, first compound 0.0949 µM) was 105%. It also gave a viability, T/C (second compound 0.0316 µM, first compound 0.3 µM) of 101%, a viability, T/C (second compound 0.0316 µM, first compound 0.949 µM) of 88.3% and a viability, T/C (second compound 0.0316 µM, first compound 3 µM) of 78.6%. The viability, T/C (second compound 0.1 µM, first compound 0.00949 µM) was 105%, the viability, T/C (second compound 0.1 µM, first compound 0.03 µM) was 99.1% and the viability, T/C (second compound 0.1 µM, first compound 0.0949 µM) was 88.4%. The viability, T/C (second compound 0.1 µM, first compound 0.3 µM) was 98.6%, the viability, T/C (second compound 0.1 µM, first compound 0.949 µM) was 99.6% and the viability, T/C (second compound 0.1 µM, first compound 3 µM) was 75.9%. It also gave a viability, T/C (second compound 0.316 µM, first compound 0.00949 µM) of 101%, a viability, T/C (second compound 0.316 µM, first compound 0.03 µM) of 90.6% and a viability, T/C (second compound 0.316 µM, first compound 0.0949 µM) of 91.4%. It also gave a viability, T/C (second compound 0.316 µM, first compound 0.3 µM) of 99.1%, a viability, T/C (second compound 0.316 µM, first compound 0.949 µM) of 86.8% and a viability, T/C (second compound 0.316 µM, first compound 3 µM) of 74.7%. For the same compound, the viability, T/C (second compound 1 µM, first compound 0.00949 µM) was 95.8%, the viability, T/C (second compound 1 µM, first compound 0.03 µM) was 89% and the viability, T/C (second compound 1 µM, first compound 0.0949 µM) was 104%. For the same compound, the viability, T/C (second compound 1 µM, first compound 0.3 µM) was 90.6%, the viability, T/C (second compound 1 µM, first compound 0.949 µM) was 93.6% and the viability, T/C (second compound 1 µM, first compound 3 µM) was 66.9%.

`Cn1ncnc1[C@H]1c2n[nH]c(=O)c3cc(F)cc(c23)N[C@@H]1c1ccc(F)cc1` + CNC(C)C(=O)NC1CN(S(=O)(=O)c2cccc(S(=O)(=O)N3CCC4CCC(C(=O)NC(c5ccccc5)c5ccccc5)N4C(=O)C(NC(=O)C(C)NC)C3)c2)CCC2CCC(C(=O)NC(c3ccccc3)c3ccccc3)N2C1=O was tested, and the IC50 (second compound 0.01 µM) was over 0.1 µM, the IC50 (second compound 0.0316 µM) was over 0.1 µM and the IC50 (second compound 0.1 µM) was over 0.1 µM. The IC50 (second compound 0.316 µM) was over 0.1 µM, the IC50 (second compound 1 µM) was over 0.1 µM and the viability, T/C (second compound 0.01 µM, first compound 0.000316 µM) was 85.5%. It also gave a viability, T/C (second compound 0.01 µM, first compound 0.001 µM) of 83.7%, a viability, T/C (second compound 0.01 µM, first compound 0.00316 µM) of 91.7% and a viability, T/C (second compound 0.01 µM, first compound 0.01 µM) of 90%. The viability, T/C [1] was 91%, the viability, T/C [2] was 76.1% and the viability, T/C (second compound 0.0316 µM, first compound 0.000316 µM) was 98.9%. For the same compound, the viability, T/C (second compound 0.0316 µM, first compound 0.001 µM) was 94.9%, the viability, T/C (second compound 0.0316 µM, first compound 0.00316 µM) was 99.7% and the viability, T/C (second compound 0.0316 µM, first compound 0.01 µM) was 97.1%. It also gave a viability, T/C [3] of 85%, a viability, T/C [4] of 94.2% and a viability, T/C (second compound 0.1 µM, first compound 0.000316 µM) of 97%. The viability, T/C (second compound 0.1 µM, first compound 0.001 µM) was 96.6%, the viability, T/C (second compound 0.1 µM, first compound 0.00316 µM) was 85.7% and the viability, T/C (second compound 0.1 µM, first compound 0.01 µM) was 102%. The viability, T/C [5] was 81.7%, the viability, T/C [6] was 79.4% and the viability, T/C (second compound 0.316 µM, first compound 0.000316 µM) was 97.3%. The viability, T/C (second compound 0.316 µM, first compound 0.001 µM) was 96.2%, the viability, T/C (second compound 0.316 µM, first compound 0.00316 µM) was 96.1% and the viability, T/C (second compound 0.316 µM, first compound 0.01 µM) was 82.2%. The viability, T/C [7] was 89.2%, the viability, T/C [8] was 94.4% and the viability, T/C (second compound 1 µM, first compound 0.000316 µM) was 112%. For the same compound, the viability, T/C (second compound 1 µM, first compound 0.001 µM) was 88.4%, the viability, T/C (second compound 1 µM, first compound 0.00316 µM) was 97.8% and the viability, T/C (second compound 1 µM, first compound 0.01 µM) was 85.3%. It also gave a viability, T/C [9] of 84.2% and a viability, T/C [10] of 85.6%.

Compound `O=C(c1cc(Cc2n[nH]c(=O)c3ccccc23)ccc1F)N1CCN(C(=O)C2CC2)CC1` + CNC(C)C(=O)NC1CN(S(=O)(=O)c2cccc(S(=O)(=O)N3CCC4CCC(C(=O)NC(c5ccccc5)c5ccccc5)N4C(=O)C(NC(=O)C(C)NC)C3)c2)CCC2CCC(C(=O)NC(c3ccccc3)c3ccccc3)N2C1=O has an IC50 (second compound 0.01 µM) of over 10 µM, an IC50 (second compound 0.0316 µM) of over 10 µM and an IC50 (second compound 0.1 µM) of over 10 µM. It also gave an IC50 (second compound 0.316 µM) of over 10 µM, an IC50 (second compound 1 µM) of over 10 µM and a viability, T/C [1] of 93.6%. It also gave a viability, T/C [2] of 99.7%, a viability, T/C (second compound 0.01 µM, first compound 0.316 µM) of 99% and a viability, T/C (second compound 0.01 µM, first compound 1 µM) of 98.5%. For the same compound, the viability, T/C (second compound 0.01 µM, first compound 3.16 µM) was 80.5%, the viability, T/C (second compound 0.01 µM, first compound 10 µM) was 81.1% and the viability, T/C [3] was 106%. For the same compound, the viability, T/C [4] was 104%, the viability, T/C (second compound 0.0316 µM, first compound 0.316 µM) was 88.6% and the viability, T/C (second compound 0.0316 µM, first compound 1 µM) was 113%. For the same compound, the viability, T/C (second compound 0.0316 µM, first compound 3.16 µM) was 96.1%, the viability, T/C (second compound 0.0316 µM, first compound 10 µM) was 97.7% and the viability, T/C [5] was 103%. The viability, T/C [6] was 99.2%, the viability, T/C (second compound 0.1 µM, first compound 0.316 µM) was 98% and the viability, T/C (second compound 0.1 µM, first compound 1 µM) was 86.7%. For the same compound, the viability, T/C (second compound 0.1 µM, first compound 3.16 µM) was 78.3%, the viability, T/C (second compound 0.1 µM, first compound 10 µM) was 76.5% and the viability, T/C [7] was 102%. For the same compound, the viability, T/C [8] was 106%, the viability, T/C (second compound 0.316 µM, first compound 0.316 µM) was 106% and the viability, T/C (second compound 0.316 µM, first compound 1 µM) was 94.5%. For the same compound, the viability, T/C (second compound 0.316 µM, first compound 3.16 µM) was 81.2%, the viability, T/C (second compound 0.316 µM, first compound 10 µM) was 78% and the viability, T/C [9] was 106%. It also gave a viability, T/C [10] of 94.1%, a viability, T/C (second compound 1 µM, first compound 0.316 µM) of 103% and a viability, T/C (second compound 1 µM, first compound 1 µM) of 97.2%. For the same compound, the viability, T/C (second compound 1 µM, first compound 3.16 µM) was 82.6% and the viability, T/C (second compound 1 µM, first compound 10 µM) was 94.8%.
